Test results taken from patent publication US20160038468A1 (priority 2013, published 2016).
≈ marks a conversion by molar mass, not a printed value. Where two headings read alike, the source gives them in different places.

Columns and labels:
Type in all cases: cell-based
Mobiluncus all species = experiment: Agar dilution MIC (CLSI), Mobiluncus all species
Peptoniphilus harei = experiment: Agar dilution MIC (CLSI), Peptoniphilus harei vaginal isolates; conditions: for MIC: read-out: Minimal Inhibitory Concentration (MIC)
Atopobium vaginae = experiment: Agar dilution MIC (CLSI), Atopobium vaginae vaginal isolates; conditions: for Number of strains with indicated MIC: 62 samples
Prevotella amnii = experiment: Agar dilution MIC (CLSI), Prevotella amnii vaginal isolates; conditions: for MIC: Prevotella amnii, read-out: Minimal Inhibitory Concentration (MIC)
[1] = number (%) of isolates, # tested 40
[2] = Peptoniphilus harei, # tested 23
[3] = Fannyhessea vaginae, # tested 62

**Q.** Which results are given for `Cc1ncc([N+](=O)[O-])n1CCO` [Metronidazole]?
**A.** activity on Mobiluncus species (Mobiluncus all species): substantially less active; MIC50 (Mobiluncus all species; # tested 40): 8 µg/mL (≈ 46.7 µM); MIC90 (Mobiluncus all species; # tested 40): > 128 µg/mL; Intermediate (Mobiluncus all species; [1]): 1 (3) μg/ml; Susceptible (Mobiluncus all species; [1]): 22 (55) μg/ml; Resistant (Mobiluncus all species; number (%) of isolates, # tested 40, resistance: rifaximin >32, metronidazole >32, clindamycin >8 μg/ml): 17 (42) μg/ml; MIC Range (Peptoniphilus harei; # tested 23): 1 to 4 µg/mL; MIC (Peptoniphilus harei; Peptoniphilus harei, isolate 426868V D): 2 µg/mL (≈ 11.7 µM); MIC (Peptoniphilus harei; Peptoniphilus harei, isolate 601098V Q): 1 µg/mL (≈ 5.84 µM); MIC (Peptoniphilus harei; Peptoniphilus harei, isolate 601203V 8): 2 µg/mL (≈ 11.7 µM); MIC (Peptoniphilus harei; Peptoniphilus harei, isolate 601212V 15): 1 µg/mL (≈ 5.84 µM); MIC (Peptoniphilus harei; Peptoniphilus harei, isolate 601233V R): 4 µg/mL (≈ 23.4 µM); MIC (Peptoniphilus harei; Peptoniphilus harei, isolate 601248V 23): 1 µg/mL (≈ 5.84 µM); MIC (Peptoniphilus harei; Peptoniphilus harei, isolate 601259V 11): 2 µg/mL (≈ 11.7 µM); MIC (Peptoniphilus harei; Peptoniphilus harei, isolate 601289V C): 2 µg/mL (≈ 11.7 µM); MIC (Peptoniphilus harei; Peptoniphilus harei, isolate 601293V 21): 1 µg/mL (≈ 5.84 µM); MIC (Peptoniphilus harei; Peptoniphilus harei, isolate 601302V F1): 2 µg/mL (≈ 11.7 µM); MIC (Peptoniphilus harei; Peptoniphilus harei, isolate 601311V R): 1 µg/mL (≈ 5.84 µM); MIC (Peptoniphilus harei; Peptoniphilus harei, isolate 601326V F): 2 µg/mL (≈ 11.7 µM); MIC (Peptoniphilus harei; Peptoniphilus harei, isolate 601342V F): 1 µg/mL (≈ 5.84 µM); MIC (Peptoniphilus harei; Peptoniphilus harei, isolate 601355V D): 1 µg/mL (≈ 5.84 µM); MIC (Peptoniphilus harei; Peptoniphilus harei, isolate 601365V 14): 1 µg/mL (≈ 5.84 µM); MIC (Peptoniphilus harei; Peptoniphilus harei, isolate 601374V F): 2 µg/mL (≈ 11.7 µM); MIC (Peptoniphilus harei; Peptoniphilus harei, isolate 601388V Q): 1 µg/mL (≈ 5.84 µM); MIC (Peptoniphilus harei; Peptoniphilus harei, isolate 601399V 16): 1 µg/mL (≈ 5.84 µM); MIC (Peptoniphilus harei; Peptoniphilus harei, isolate 601409V L): 1 µg/mL (≈ 5.84 µM); MIC (Peptoniphilus harei; Peptoniphilus harei, isolate 601413V 16): 2 µg/mL (≈ 11.7 µM); MIC (Peptoniphilus harei; Peptoniphilus harei, isolate 601426V D): 1 µg/mL (≈ 5.84 µM); MIC (Peptoniphilus harei; Peptoniphilus harei, isolate 601430V 22): 1 µg/mL (≈ 5.84 µM); MIC (Peptoniphilus harei; Peptoniphilus harei, isolate 601539V 25B): 2 µg/mL (≈ 11.7 µM); MIC50 (Peptoniphilus harei; [2]): 1 µg/mL (≈ 5.84 µM); MIC90 (Peptoniphilus harei; [2]): 2 µg/mL (≈ 11.7 µM); activity against Atopobium vaginae (Atopobium vaginae): limited activity; MIC50 (Atopobium vaginae; [3]): 128 µg/mL (≈ 748 µM); MIC90 (Atopobium vaginae; [3]): > 128 µg/mL; Number of strains with indicated MIC (Atopobium vaginae; MIC 8 μg/ml): 2; Number of strains with indicated MIC (Atopobium vaginae; MIC 16 μg/ml): 5; Number of strains with indicated MIC (Atopobium vaginae; MIC 32 μg/ml): 10; Number of strains with indicated MIC (Atopobium vaginae; MIC 64 μg/ml): 8; Number of strains with indicated MIC (Atopobium vaginae; MIC >[…]): 24; Number of strains with indicated MIC (Atopobium vaginae; MIC […] μg/ml): 1; Number of strains with indicated MIC (Atopobium vaginae; MIC […]): 12; MIC Range (Prevotella amnii; # tested 33): 0.25 to 2 µg/mL; Number of strains with indicated MIC (Prevotella amnii; MIC […], 33 samples): 1; MIC (Prevotella amnii; isolate 601203 4): 1 µg/mL (≈ 5.84 µM); MIC (Prevotella amnii; isolate 601256 11): 1 µg/mL (≈ 5.84 µM); MIC (Prevotella amnii; isolate 601258 25): 0.5 µg/mL (≈ 2.92 µM); MIC (Prevotella amnii; isolate 601261 E): 1 µg/mL (≈ 5.84 µM); MIC (Prevotella amnii; isolate 601266 20): 0.5 µg/mL (≈ 2.92 µM); MIC (Prevotella amnii; isolate 601278 10): 1 µg/mL (≈ 5.84 µM); MIC (Prevotella amnii; isolate 601287 HH): 0.5 µg/mL (≈ 2.92 µM); MIC (Prevotella amnii; isolate 601291 41): 1 µg/mL (≈ 5.84 µM); MIC (Prevotella amnii; isolate 601293 29): 1 µg/mL (≈ 5.84 µM); MIC (Prevotella amnii; isolate 601305 A): 2 µg/mL (≈ 11.7 µM); MIC (Prevotella amnii; isolate 601311 K): 0.5 µg/mL (≈ 2.92 µM); MIC (Prevotella amnii; isolate 601314 19): 2 µg/mL (≈ 11.7 µM); MIC (Prevotella amnii; isolate 601318 G): 1 µg/mL (≈ 5.84 µM); MIC (Prevotella amnii; isolate 601336 33): 1 µg/mL (≈ 5.84 µM); MIC (Prevotella amnii; isolate 601340 37): 2 µg/mL (≈ 11.7 µM); MIC (Prevotella amnii; isolate 601341 H): 1 µg/mL (≈ 5.84 µM); MIC (Prevotella amnii; isolate 601350 A): 0.5 µg/mL (≈ 2.92 µM); MIC (Prevotella amnii; isolate 601365 6): 0.25 µg/mL (≈ 1.46 µM); MIC (Prevotella amnii; isolate 601368 24): 0.5 µg/mL (≈ 2.92 µM); MIC (Prevotella amnii; isolate 601369 13): 2 µg/mL (≈ 11.7 µM); MIC (Prevotella amnii; isolate 601375 L): 1 µg/mL (≈ 5.84 µM); MIC (Prevotella amnii; isolate 601377 9): 1 µg/mL (≈ 5.84 µM); MIC (Prevotella amnii; isolate 601379 24): 1 µg/mL (≈ 5.84 µM); MIC (Prevotella amnii; isolate 601388 G): 1 µg/mL (≈ 5.84 µM); MIC (Prevotella amnii; isolate 601399 10): 1 µg/mL (≈ 5.84 µM); MIC (Prevotella amnii; isolate 601405 A): 1 µg/mL (≈ 5.84 µM); MIC (Prevotella amnii; isolate 601411 L): 1 µg/mL (≈ 5.84 µM); MIC (Prevotella amnii; isolate 601413 10): 1 µg/mL (≈ 5.84 µM); MIC (Prevotella amnii; isolate 601418 27): 1 µg/mL (≈ 5.84 µM); MIC (Prevotella amnii; isolate 601426 A): 1 µg/mL (≈ 5.84 µM); MIC (Prevotella amnii; isolate 601430 14): 1 µg/mL (≈ 5.84 µM); MIC (Prevotella amnii; isolate 601434 13): 0.5 µg/mL (≈ 2.92 µM); MIC (Prevotella amnii; isolate 601458 13): 1 µg/mL (≈ 5.84 µM)
